Consider two molecules from patent publication US20230286919A1, “ISOQUINOLINE DERIVATIVES FOR USE IN THERAPY” (Vestlandets Innovasjonsselskap AS, priority 2020, published 2023).

pIC50, pKi: −log10 of the molar value. Where two headings read alike, the source gives them in different places.

One assay concerns the target AKT1 (PKB alpha) (Homo sapiens, UniProt P31749). The assay can be described thus: SelectScreen kinase profiling, AKT1. The assay is classed as biochemical. Particulars: read-out: Enzyme inhibitory activity IC50.
In the next assay the target is TGFBR1 (ALK5) (Homo sapiens, UniProt P36897). Description: SelectScreen kinase profiling, TGFBR1 (ALK5). Format: binding. Conditions: cell free, read-out: Enzyme inhibitory activity IC50. The method, then:
(§1) The in vitro kinase inhibitory assays in the presence of compounds 323-1 and 323-2 were carried out according to the Z′-LYTE™ Screening and LanthaScreen Eu Kinase Binding Assays Experimental Procedures in Invitrogen (ThermoFisher Scientific, Waltham, Mass., USA). For the Z′-LYTE™ Screening profiling for FRAP1 (mTOR), JAK3, and LTK (TYK1), a mixture containing the test compounds in 100% DMSO, 2.4 μL Kinase buffer (50 mM HEPES pH 7.5, 0.01% BRIJ-35, 10 mM MgCl2, 1 mM EGTA), 5 μL 2× Peptide/Kinase Mixture, 2.5 μL 4×ATP Solution were added into black 384-well low volume NBS and bar-coded corning plate (Corning Cat. #4514) and shake the plate for 30 seconds. After incubation at RT for 60 min, 5 μL Development Reagent Solution was added into plate and shake the plate for 30 seconds, followed by Development Reaction incubation at RT for 60 min. Read on fluorescence plate reader and analyze the data. […]
(§2) Inhibition by compounds 323-1 and 323-2 of MAP2K4 (MEK4) and TGFBR1 (ALK5) was determined by […]. Inhibition by compounds 323-1 and 323-2 of FRAP1 (mTOR), JAK3, and LTK (TYK1) was determined by […] using the Adapta Universal Kinase Assay (Life Technologies). […]

For a further assay, the target named is FLT4 (VEGFR3) (Homo sapiens, UniProt P35916). Description: SelectScreen kinase profiling, FLT4. The assay is classed as biochemical. Particulars: read-out: Enzyme inhibitory activity IC50.
Assay [1] concerns the target T1, Recombinant Human STAT3 protein (SH2 domain) (Homo sapiens, UniProt P40763).
T1 construct: purchased Abcam ab43618
Description: Fluorescence Polarization (FP) competition assay, STAT3 / GpYLPQTV-NH2 peptide. Format: binding. The method, then: The FP assay was conducted as described by Zhao et al. (J Biol Chem. 2010; 285: 35855-65). The labeled phosphopeptide, 5-FLU-G(P-TYR)LPQTV-NH2 was synthesized by ProImmune (London, UK) with over 95% purity as probe. The Recombinant Human STAT3 protein was purchased from Abcam (ab43618). For saturation curves, various concentration of peptide probe (0-100 nM) and STAT3 protein ([…]) were incubated for 30 min at RT in the buffer (50 mm NaCl, 10 mm HEPES, 1 mm EDTA, 0.1% Nonidet P-40). To obtain the inhibitory effect, drugs (0-1000 μM) and 150 nM human STAT3 were incubated at 37° C. for 1 hour prior to co-incubation with 10 nM of labeled LPQTV peptide at RT for 30 min. […] The fluorescence polarization was then analyzed by the BioTek Synergy™ Neo2 Multi-Mode Microplate Reader (BioTek Instruments, Winooski, Vt., USA). Ki=IC50/(([L])/Kd)+1).
Strategies to target STAT3 SH2 have been pursued recently. These small molecule inhibitors are designed to bind to a site resident in the STAT3 SH2 domain by competing with the p-Tyr705.
As STAT3 may be recruited to gp130 within phosphotyrosine residues, the competitive FP assay was utilized to identify whether 323-1 and 323-2 target STAT3 SH2 domain.
The control was set as 1% DMSO. Data are representative of 2 independent experiments.
Background: Polarisation of emitted light reports the rotation of a fluorescent probe.

For the next assay, the target named is MAP2K6 (MKK6) (Homo sapiens, UniProt P52564). The assay can be described thus: SelectScreen kinase profiling, MAP2K6. The assay is classed as biochemical. Particulars: read-out: Enzyme inhibitory activity IC50.
The target of a further assay is FGFR3 (Homo sapiens, UniProt P22607). The assay can be described thus: SelectScreen kinase profiling, FGFR3. Format: biochemical. Particulars: read-out: Enzyme inhibitory activity IC50.
A further assay concerns the target TYK2 (Homo sapiens, UniProt P29597). The assay can be described thus: SelectScreen kinase profiling, TYK2. Particulars: read-out: Enzyme inhibitory activity IC50. The assay is classed as biochemical.
The target of the next assay is MAPK9 (JNK2) (Homo sapiens, UniProt P45984). Description: SelectScreen kinase profiling, MAPK9. Conditions: read-out: Enzyme inhibitory activity IC50. The assay is classed as biochemical.
The target in another assay is SRC N1 (Homo sapiens, UniProt P12931). The assay can be described thus: SelectScreen kinase profiling, SRC N1. Format: biochemical. Conditions: read-out: Enzyme inhibitory activity IC50.
The target of the next assay is MAPK10 (JNK3) (Homo sapiens, UniProt P53779). Description: SelectScreen kinase profiling, MAPK10. Format: biochemical. Particulars: read-out: Enzyme inhibitory activity IC50.
A further assay concerns the target EGFR (ErbB1) (Homo sapiens, UniProt P00533). Description: SelectScreen kinase profiling, EGFR. The assay is classed as biochemical. Conditions: read-out: Enzyme inhibitory activity IC50.
Another assay concerns the target JAK1 (Homo sapiens, UniProt P23458). The assay can be described thus: SelectScreen kinase profiling, JAK1. Conditions: read-out: Enzyme inhibitory activity IC50. Format: biochemical.
A further assay deals with MAPK3 (ERK1) (Homo sapiens, UniProt P27361). The assay can be described thus: SelectScreen kinase profiling, MAPK3. The assay is classed as biochemical. Conditions: read-out: Enzyme inhibitory activity IC50.
The next assay addresses PDGFRA (PDGFR alpha) (Homo sapiens, UniProt P16234). Description: SelectScreen kinase profiling, PDGFRA. The assay is classed as biochemical. Particulars: read-out: Enzyme inhibitory activity IC50.
In a further assay the target is ERBB2 (HER2) (Homo sapiens, UniProt P04626). The assay can be described thus: SelectScreen kinase profiling, ERBB2. The assay is classed as biochemical. Particulars: read-out: Enzyme inhibitory activity IC50.
The target in the next assay is FRAP1 (mTOR) (Homo sapiens, UniProt P42345). Description: SelectScreen biochemical kinase profiling, FRAP1 (mTOR). Particulars: cell free, read-out: Enzyme inhibitory activity IC50. How it is done: as §1, §2
The next assay has as its target PDGFRB (PDGFR beta) (Homo sapiens, UniProt P09619). Description: SelectScreen kinase profiling, PDGFRB. Format: biochemical. Particulars: read-out: Enzyme inhibitory activity IC50.
The next assay has as its system STAT3 activity. Description: STAT3 luciferase reporter assay in HEK293T cells with IL-6. The assay is classed as cell-based, human. Conditions: 20 ng/ml IL-6, 24 hrs, compared with cryptotanshinone. How it is done: Luciferase activity was measured by the Dual Luciferase Assay Kit (Promega) using a Luminescence Microplate Reader (Biotek). Values were normalized to Renilla luciferase activity of DMSO vehicle.
All data are represented as the average±s.e.m (n=3). Significance was verified by using unpaired two-tailed Student's t-test. *p s 0.05.

Setting [2] is: 10 nM peptide, 150 nM human STAT3 (FIG. 20), read-out: Ki, disruption of binding of STAT3 to phosphotyrosine peptide GpYLPQTV.
The mark [3] stands for this setting: background (autofluorescence) subtracted (FIG. 33), read-out: Ki, protein-ligand interaction after background subtraction.

T1 sequence (P40763 whole entry, the tested form may be a part): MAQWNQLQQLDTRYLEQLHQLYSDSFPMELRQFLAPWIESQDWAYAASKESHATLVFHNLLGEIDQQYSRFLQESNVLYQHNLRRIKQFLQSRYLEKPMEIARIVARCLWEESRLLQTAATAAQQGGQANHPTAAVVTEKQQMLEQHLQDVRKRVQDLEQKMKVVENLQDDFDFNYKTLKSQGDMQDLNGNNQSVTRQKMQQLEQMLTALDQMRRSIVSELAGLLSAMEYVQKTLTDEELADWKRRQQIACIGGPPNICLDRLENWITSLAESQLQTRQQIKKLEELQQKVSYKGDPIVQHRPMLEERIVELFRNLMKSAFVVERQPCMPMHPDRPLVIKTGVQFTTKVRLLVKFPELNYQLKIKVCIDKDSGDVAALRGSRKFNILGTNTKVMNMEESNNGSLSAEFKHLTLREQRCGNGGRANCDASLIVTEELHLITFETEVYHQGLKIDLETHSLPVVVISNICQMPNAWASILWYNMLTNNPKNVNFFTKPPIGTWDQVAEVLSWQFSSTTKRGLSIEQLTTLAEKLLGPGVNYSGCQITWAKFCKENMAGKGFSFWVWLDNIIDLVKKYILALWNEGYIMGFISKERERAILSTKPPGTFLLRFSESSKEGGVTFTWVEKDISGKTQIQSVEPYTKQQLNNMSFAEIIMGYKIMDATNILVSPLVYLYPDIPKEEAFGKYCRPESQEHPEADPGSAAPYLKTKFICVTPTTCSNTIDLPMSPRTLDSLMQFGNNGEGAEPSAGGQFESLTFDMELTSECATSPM
Chain of PDGFRA (PDGFR alpha) (P16234 24-1089): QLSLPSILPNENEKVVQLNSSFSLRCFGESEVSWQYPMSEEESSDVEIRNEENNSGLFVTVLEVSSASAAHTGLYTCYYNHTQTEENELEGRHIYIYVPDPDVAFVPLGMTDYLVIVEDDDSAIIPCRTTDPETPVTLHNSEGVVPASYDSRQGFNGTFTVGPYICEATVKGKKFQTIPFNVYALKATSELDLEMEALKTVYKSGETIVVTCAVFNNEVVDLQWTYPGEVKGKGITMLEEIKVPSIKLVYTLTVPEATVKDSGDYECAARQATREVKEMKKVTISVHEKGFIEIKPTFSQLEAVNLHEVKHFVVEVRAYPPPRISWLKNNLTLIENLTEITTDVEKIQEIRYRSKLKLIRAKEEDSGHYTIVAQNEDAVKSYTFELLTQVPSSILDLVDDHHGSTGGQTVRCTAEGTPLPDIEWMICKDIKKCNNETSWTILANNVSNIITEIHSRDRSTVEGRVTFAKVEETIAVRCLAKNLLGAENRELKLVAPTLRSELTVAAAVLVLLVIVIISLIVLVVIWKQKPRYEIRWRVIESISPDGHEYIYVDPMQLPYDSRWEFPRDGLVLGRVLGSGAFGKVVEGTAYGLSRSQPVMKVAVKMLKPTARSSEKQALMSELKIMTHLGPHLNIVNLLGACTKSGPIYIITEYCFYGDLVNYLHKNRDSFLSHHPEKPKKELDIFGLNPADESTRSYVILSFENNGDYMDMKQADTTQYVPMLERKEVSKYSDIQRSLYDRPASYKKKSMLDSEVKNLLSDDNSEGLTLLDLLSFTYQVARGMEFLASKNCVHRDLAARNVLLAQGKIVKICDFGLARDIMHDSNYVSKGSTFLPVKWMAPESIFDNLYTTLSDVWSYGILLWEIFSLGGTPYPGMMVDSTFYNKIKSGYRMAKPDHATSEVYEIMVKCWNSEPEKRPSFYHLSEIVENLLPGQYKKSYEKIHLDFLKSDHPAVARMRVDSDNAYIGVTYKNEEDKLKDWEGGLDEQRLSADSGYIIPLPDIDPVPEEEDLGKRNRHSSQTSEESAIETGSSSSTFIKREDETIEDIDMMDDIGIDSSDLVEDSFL
Chain of FLT4 (VEGFR3) (P35916 25-1363): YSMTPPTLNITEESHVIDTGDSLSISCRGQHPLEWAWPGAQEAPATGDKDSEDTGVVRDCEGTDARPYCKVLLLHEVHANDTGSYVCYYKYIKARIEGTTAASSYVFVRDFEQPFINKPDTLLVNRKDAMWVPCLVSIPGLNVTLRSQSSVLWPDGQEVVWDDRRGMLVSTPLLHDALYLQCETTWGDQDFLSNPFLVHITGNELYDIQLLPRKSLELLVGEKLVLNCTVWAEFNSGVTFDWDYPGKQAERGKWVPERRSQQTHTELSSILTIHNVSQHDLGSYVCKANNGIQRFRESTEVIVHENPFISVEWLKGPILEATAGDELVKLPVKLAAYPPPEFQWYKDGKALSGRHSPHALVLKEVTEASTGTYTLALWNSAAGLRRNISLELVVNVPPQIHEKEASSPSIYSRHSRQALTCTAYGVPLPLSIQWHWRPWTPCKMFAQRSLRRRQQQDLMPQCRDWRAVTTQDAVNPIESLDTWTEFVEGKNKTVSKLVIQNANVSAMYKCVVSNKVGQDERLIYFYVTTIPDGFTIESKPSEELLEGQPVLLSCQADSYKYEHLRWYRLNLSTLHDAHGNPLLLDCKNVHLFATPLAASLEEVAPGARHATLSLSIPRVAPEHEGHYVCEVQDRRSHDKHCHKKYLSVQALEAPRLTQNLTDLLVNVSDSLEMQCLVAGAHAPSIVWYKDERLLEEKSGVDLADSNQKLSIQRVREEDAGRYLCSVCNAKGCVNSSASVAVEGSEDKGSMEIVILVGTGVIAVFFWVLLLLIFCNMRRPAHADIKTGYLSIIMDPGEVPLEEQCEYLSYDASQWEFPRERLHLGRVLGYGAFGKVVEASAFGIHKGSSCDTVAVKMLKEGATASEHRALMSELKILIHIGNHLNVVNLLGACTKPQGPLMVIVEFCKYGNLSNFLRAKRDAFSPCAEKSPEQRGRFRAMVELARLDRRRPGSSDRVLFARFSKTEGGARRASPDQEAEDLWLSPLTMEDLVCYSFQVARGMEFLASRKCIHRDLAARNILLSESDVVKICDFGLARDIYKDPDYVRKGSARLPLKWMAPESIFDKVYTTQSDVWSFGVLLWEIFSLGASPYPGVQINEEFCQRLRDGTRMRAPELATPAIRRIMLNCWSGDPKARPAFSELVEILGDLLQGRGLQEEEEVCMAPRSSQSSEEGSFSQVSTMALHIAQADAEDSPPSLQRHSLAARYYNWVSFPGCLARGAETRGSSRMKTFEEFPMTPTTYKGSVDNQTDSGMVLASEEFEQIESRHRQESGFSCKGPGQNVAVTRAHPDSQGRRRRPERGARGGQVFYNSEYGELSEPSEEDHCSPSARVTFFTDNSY
Chain of TGFBR1 (ALK5) (P36897 34-503): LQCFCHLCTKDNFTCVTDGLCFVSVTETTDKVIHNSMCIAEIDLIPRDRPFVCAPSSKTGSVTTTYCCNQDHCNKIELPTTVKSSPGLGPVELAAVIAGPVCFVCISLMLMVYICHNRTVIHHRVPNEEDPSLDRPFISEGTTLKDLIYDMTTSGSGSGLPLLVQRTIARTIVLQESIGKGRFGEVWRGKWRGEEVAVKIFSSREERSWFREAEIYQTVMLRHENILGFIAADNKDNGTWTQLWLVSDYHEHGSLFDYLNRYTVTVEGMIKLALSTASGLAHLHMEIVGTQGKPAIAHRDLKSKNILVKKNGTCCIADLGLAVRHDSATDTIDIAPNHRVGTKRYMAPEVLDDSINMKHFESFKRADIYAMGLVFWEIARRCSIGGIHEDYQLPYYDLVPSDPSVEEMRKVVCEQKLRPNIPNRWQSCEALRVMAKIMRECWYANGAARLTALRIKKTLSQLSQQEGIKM
Chain of MAPK3 (ERK1) (P27361 whole entry): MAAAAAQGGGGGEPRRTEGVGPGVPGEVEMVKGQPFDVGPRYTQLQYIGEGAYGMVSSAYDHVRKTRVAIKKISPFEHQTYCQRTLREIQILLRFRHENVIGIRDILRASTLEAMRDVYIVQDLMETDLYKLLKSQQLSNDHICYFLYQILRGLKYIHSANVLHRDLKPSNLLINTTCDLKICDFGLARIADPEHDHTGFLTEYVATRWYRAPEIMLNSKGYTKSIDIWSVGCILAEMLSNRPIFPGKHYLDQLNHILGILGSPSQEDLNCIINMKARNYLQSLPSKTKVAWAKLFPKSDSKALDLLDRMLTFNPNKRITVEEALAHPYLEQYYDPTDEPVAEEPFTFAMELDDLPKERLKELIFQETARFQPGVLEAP
Chain of FGFR3 (P22607 23-806): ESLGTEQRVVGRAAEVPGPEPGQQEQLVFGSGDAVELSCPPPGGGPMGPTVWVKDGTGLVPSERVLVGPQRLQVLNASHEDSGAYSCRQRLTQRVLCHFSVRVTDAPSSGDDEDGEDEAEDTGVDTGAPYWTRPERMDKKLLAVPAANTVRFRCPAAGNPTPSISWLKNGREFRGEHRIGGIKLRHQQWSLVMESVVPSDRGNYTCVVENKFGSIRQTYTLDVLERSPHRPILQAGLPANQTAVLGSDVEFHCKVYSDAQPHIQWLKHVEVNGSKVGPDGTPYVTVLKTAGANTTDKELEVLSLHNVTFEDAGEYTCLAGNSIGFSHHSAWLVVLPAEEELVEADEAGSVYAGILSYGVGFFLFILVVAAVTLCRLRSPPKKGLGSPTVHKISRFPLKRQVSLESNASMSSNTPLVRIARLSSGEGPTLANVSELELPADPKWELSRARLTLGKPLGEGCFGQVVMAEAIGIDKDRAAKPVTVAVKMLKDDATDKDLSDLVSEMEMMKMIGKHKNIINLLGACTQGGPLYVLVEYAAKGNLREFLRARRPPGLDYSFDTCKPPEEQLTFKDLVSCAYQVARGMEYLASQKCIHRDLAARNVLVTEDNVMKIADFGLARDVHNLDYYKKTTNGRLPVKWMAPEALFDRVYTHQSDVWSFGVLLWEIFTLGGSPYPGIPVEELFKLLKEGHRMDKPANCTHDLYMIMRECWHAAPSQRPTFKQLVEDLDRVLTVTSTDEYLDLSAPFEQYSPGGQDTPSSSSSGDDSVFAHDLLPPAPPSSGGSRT

On to `C[C@@H]1CCC(c2cc3c4c(cncc4c2)[C@H](C)C3)=C1C=O` [323-1, (15R,2R)-Delavatine A], for which the pIC50 on AKT1 (PKB alpha) was less than 4.70; on TGFBR1 (ALK5) it was 5.10; on FLT4 (VEGFR3), less than 4.70; at MAP2K6 (MKK6), less than 4.70; on FGFR3 it was less than 4.70; at TYK2, less than 4.70. Also, the pIC50 on MAPK9 (JNK2), at SRC N1, on MAPK10 (JNK3), on EGFR (ErbB1), at JAK1 and at MAPK3 (ERK1) was less than 4.70 throughout. The pIC50 is less than 4.70 at PDGFRA (PDGFR alpha), less than 4.70 on ERBB2 (HER2), 5.21 at FRAP1 (mTOR) and less than 4.70 at PDGFRB (PDGFR beta). For the same molecule, the pKi was roughly 4.03 in assay [1] (setting [2]) and 4.03 in assay [1] (setting [3]).

For `C[C@@H]1CCC(c2cc3c4c(cncc4c2)[C@@H](C)C3)=C1C=O` [323-2, (15S,2R)-Delavatine A], the pIC50 on AKT1 (PKB alpha) was less than 4.70; at TGFBR1 (ALK5), 5.03; at FLT4 (VEGFR3), less than 4.70; on MAP2K6 (MKK6), less than 4.70; on FGFR3, less than 4.70; at TYK2, less than 4.70. Moreover, the pIC50 on MAPK9 (JNK2), at SRC N1, at MAPK10 (JNK3), at EGFR (ErbB1), on JAK1 and on MAPK3 (ERK1) was less than 4.70 in each case. For the same molecule, the pIC50 on PDGFRA (PDGFR alpha) was less than 4.70; on ERBB2 (HER2), less than 4.70; at FRAP1 (mTOR), 5.12; on PDGFRB (PDGFR beta), less than 4.70. The pKi in [1] (setting [2]) was roughly 4.12; in [1] (setting [3]), 4.12. Moreover, the “Potency to disrupt STAT3/GpYLPQTV relative to S3I-201” value in [1] (higher than S3I-201) is “around 5 fold”. In addition, the “Inhibitory effect on STAT3 activation (luciferase reporter)” value in the assay on STAT3 activity was “stronger inhibitory effect on STAT3 activation than cryptotanshinone”.

A word on the pIC50: it is −log10 of the IC50, conventionally taken in molar units. The term pKi denotes the negative decadic logarithm of the Ki, by convention in mol/L.
